≈ marks a conversion by molar mass, not a printed value. Where “and” joins values, the source holds several entries; their conditions need not be identical. Equal entries are not always repeated. Where two headings read alike, the source gives them in different places.
Columns and labels:
ecLeuRS [1] = molecular target: T1, ecLeuRS (Escherichia coli, UniProt P07813); settings: cited from earlier work
ecLeuRS [2] = molecular target: T1, ecLeuRS; test: SPR single-cycle kinetics, BAP-ecLeuRS in the presence of AMP; type: binding; settings: for Kd/IC50: ratio of SPR Kd (AMP) and IC50 after 1 h preincubation; for kon: read-out: SPR kon
E. coli ATCC25922 [3] = test: MIC, visible growth in 96-well plates; type: cell-based, Escherichia coli
ecLeuRS D342E [4] = molecular target: T2, ecLeuRS D342E (Escherichia coli, UniProt P07813, D342E); test: biochemical; type: biochemical
human cytoplasmic LeuRS = settings: read-out: reported IC50; cited from earlier work
ecLeuRS [5] = molecular target: T1, ecLeuRS; test: LeuRS aminoacylation-activity assay; type: biochemical; settings: IC50, 1 h preincubation, 1 h preincubation with enzyme and ectRNA^Leu
E. coli ATCC25922 [6] = test: Checkerboard MIC assay and FIC index; type: cell-based, Escherichia coli; settings: for MIC: Escherichia coli
mtLeuRS [7] = molecular target: T3, mtLeuRS (Mycobacterium tuberculosis, UniProt P9WFV1); type: binding
E. coli ATCC25922 [8] = test: Time-kill assay; type: cell-based, Escherichia coli; settings: combination of ganfeborole and Nva, M9 medium
[9] = tested on: M. tuberculosis H37Rv_LuxABCDE; test: Post-antibiotic effect, autobioluminescent strain; type: cell-based, Mycobacterium tuberculosis
mtLeuRS [10] = molecular target: T3, mtLeuRS; settings: mtLeuRS in the presence of AMP; cited from earlier work
M. tuberculosis H37Rv = test: MIC, microplate Alamar blue assay; type: cell-based; settings: Mycobacterium tuberculosis
[11] = tested on: human mitochondrial LeuRS; settings: read-out: reported IC50; cited from earlier work
ecLeuRS D342E [12] = molecular target: T2, ecLeuRS D342E; test: biochemical; type: binding
[13] = tested on: E. coli mutant strains (ecLeuRS D342E, G333D, D345N, V335D); test: microbe, parasite or virus in culture; type: cell-based, Escherichia coli
E. coli ΔtolC and ΔacrAB = type: cell-based, Escherichia coli
mtLeuRS [14] = molecular target: T3, mtLeuRS; test: biochemical; settings: IC50, 1 h preincubation, 1 h preincubation with enzyme and mttRNA^Leu
M. tuberculosis = settings: cited from earlier work
[15] = 1xMIC exposure for 2.5 h, 10,000-fold dilution
[16] = 10xMIC exposure for 2.5 h, 10,000-fold dilution
[17] = 30xMIC exposure for 2.5 h, 10,000-fold dilution
[18] = 50xMIC exposure for 2.5 h, 10,000-fold dilution

T3 sequence (P9WFV1 whole entry): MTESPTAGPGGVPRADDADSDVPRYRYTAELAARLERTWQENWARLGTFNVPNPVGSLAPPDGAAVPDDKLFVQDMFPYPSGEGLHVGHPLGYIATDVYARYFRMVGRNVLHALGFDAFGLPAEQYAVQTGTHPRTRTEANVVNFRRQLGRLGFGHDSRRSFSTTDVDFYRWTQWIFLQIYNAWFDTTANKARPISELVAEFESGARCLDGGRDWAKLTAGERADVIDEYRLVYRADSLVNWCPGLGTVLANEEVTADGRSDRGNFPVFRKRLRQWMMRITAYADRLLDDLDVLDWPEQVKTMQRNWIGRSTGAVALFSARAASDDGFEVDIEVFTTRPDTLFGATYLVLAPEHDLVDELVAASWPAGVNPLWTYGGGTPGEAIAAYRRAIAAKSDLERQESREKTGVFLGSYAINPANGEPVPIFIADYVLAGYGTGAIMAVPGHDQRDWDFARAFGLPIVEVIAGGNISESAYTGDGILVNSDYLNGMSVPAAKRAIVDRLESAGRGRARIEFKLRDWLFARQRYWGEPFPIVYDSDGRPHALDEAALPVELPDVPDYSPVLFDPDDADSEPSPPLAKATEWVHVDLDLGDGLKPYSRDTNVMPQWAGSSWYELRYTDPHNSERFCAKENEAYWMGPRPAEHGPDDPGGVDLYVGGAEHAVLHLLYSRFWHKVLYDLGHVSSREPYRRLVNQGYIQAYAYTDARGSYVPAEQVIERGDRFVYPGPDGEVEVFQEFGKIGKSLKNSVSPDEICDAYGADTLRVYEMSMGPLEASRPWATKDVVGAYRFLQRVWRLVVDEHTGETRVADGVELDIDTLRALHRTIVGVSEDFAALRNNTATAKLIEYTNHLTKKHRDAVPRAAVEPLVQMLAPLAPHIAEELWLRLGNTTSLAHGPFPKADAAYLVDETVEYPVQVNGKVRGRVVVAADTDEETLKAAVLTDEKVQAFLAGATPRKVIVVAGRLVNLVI
T2 sequence (P07813 whole entry D342E): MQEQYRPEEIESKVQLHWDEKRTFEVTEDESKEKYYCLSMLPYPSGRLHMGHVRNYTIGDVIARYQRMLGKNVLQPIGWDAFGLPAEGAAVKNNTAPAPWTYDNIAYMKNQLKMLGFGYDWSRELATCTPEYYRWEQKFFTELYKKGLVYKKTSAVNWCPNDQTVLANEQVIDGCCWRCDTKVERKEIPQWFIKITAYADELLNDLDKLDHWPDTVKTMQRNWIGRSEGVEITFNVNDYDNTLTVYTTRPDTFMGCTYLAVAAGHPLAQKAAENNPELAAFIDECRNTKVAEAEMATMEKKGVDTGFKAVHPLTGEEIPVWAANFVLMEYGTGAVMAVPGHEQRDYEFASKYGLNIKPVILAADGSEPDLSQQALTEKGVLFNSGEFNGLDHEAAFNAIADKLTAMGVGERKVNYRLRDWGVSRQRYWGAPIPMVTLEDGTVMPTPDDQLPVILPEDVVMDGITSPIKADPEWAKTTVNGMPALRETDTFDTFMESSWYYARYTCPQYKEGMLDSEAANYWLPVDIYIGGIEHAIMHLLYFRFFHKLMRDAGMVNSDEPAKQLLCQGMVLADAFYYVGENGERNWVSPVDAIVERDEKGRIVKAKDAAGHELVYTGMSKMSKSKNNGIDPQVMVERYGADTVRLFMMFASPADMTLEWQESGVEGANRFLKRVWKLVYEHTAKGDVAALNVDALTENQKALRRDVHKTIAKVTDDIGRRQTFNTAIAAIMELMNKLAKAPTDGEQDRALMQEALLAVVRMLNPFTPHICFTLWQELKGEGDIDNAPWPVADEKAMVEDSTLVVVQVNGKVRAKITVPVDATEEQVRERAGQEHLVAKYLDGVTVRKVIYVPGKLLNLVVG
T1 sequence (P07813 whole entry): as the sequence (P07813 whole entry D342E) above, with E342D counted along it

## NCC1OB(O)c2c(OCCCO)cccc21 (centres unmarked) [AN3213]
ecLeuRS [1]; ecLeuRS and tRNA^Leu
  reported residence time: 23 h

## NC[C@H]1OB(O)c2c(OCCCO)cccc21 [Epetraborole]
ecLeuRS [1]; ecLeuRS with tRNA^Leu
  residence time: 23 h
ecLeuRS [2]
  Kd: 1100 ± 71 nM
  kon: 62000 ± 33000 M⁻¹ s⁻¹
ecLeuRS [2]; ecLeuRS
  Kd/IC50: 367
E. coli ATCC25922 [3]; Escherichia coli, ATCC25922
  MIC: 1.56 µM (≈ 0.37 µg/mL)

## NC[C@H]1OB(O)c2c(OCCO)ccc(Cl)c21 [Ganfeborole, (S)-3-(Aminomethyl)-4-chloro-7-(2-hydroxyethoxy)benzo[c][1,2]oxaborol-1(3H)-ol]
ecLeuRS D342E [4]
  fold increase in IC50, D342E mutant versus ecLeuRS: 10 fold
ecLeuRS D342E [4]; IC50, 2 min preincubation
  IC50: 278 ± 19 nM
ecLeuRS D342E [4]; IC50, 20 min preincubation
  IC50: 60 ± 4 nM
ecLeuRS D342E [4]; IC50, 1 h preincubation
  IC50: 20 ± 2 nM
Human cytoplasmic LeuRS
  IC50: 132000 nM
ecLeuRS [5]
  IC50: 2 ± 0.1 nM
E. coli ATCC25922 [6]; E. coli, 12.5 μM Nva
  fold decrease in the MIC of ganfeborole on addition of Nva: > 1000 fold
E. coli ATCC25922 [6]; ATCC25922, read-out: MIC of ganfeborole + 12.5 μM Nva, E. coli ATCC25922, M9 media, + 12.5 μM Nva
  MIC: 0.4 µM
E. coli ATCC25922 [6]; ATCC25922, read-out: MIC of ganfeborole + 100 μM Nva + 100 μM Leu, E. coli ATCC25922, M9 media, + 100 μM Nva + 100 μM Leu
  MIC: 1600 µM
E. coli ATCC25922 [6]; checkerboard of Nva and ganfeborole, E. coli ATCC25922
  FICI: < 0.5
ecLeuRS [2]
  Kd: 17 ± 1 nM
  kon: 9500 ± 500 M⁻¹ s⁻¹
ecLeuRS [2]; ecLeuRS, SPR with AMP
  fold more potent binding than compound 1: 30-40 fold
ecLeuRS [2]; ecLeuRS, in the presence of AMP
  SPR tR (residence time): 104 ± 5 min
ecLeuRS [2]; ecLeuRS
  Kd/IC50: 8.5
ecLeuRS [2]; read-out: SPR koff
  koff: 0.00016 ± 1e-05 s⁻¹
ecLeuRS [2]; read-out: SPR tR (residence time), ecLeuRS, in the presence of AMP
  residence time: 100 min
mtLeuRS [7]; SPR with AMP
  fold more potent binding than compound 1: ~ 50 fold
mtLeuRS [7]; ratio of SPR Kd (AMP) and IC50 after 1 h preincubation
  Kd/IC50: 7
E. coli ATCC25922 [8]
  time-kill result: cidality
[9]; [15]
  PAE 1xMIC: 0 h
[9]; [16]
  PAE 10xMIC: 32 ± 2 h
[9]; [17]
  PAE 30xMIC: 39 ± 2 h
[9]; [18]
  PAE 50xMIC: 77 ± 4 h
[9]; 50xMIC exposure for 2.5 h, 10,000-fold dilution, listed as ganfeborole
  PAE 50xMIC: 77 h
mtLeuRS [10]
  Kd: 10.4 nM
M. tuberculosis H37Rv
  MIC: 0.058 µM (≈ 0.0149 µg/mL)
[11]
  IC50: > 300000 nM
ecLeuRS D342E [12]
  Kd: 1700 ± 197 nM
  Kd/IC50: 85
ecLeuRS D342E [12]; read-out: SPR koff
  koff: 0.07 ± 0.0071 s⁻¹
ecLeuRS D342E [12]; read-out: SPR kon
  kon: 42000 ± 1000 M⁻¹ s⁻¹
ecLeuRS D342E [12]; read-out: SPR tR (residence time)
  residence time: 0.24 ± 0.02 min
[13]
  MIC: 1.56 µM (≈ 0.402 µg/mL)
[13]; Escherichia coli, read-out: MIC, four mutant strains together
  MIC: 1.56 to 6.25 µM (≈ 0.402 to 1.61 µg/mL)
E. coli ΔtolC and ΔacrAB
  MIC / antibacterial activity in efflux pump mutant strains: no antibacterial activity
  antibacterial activity, no activity up to: > 1 mM
E. coli ATCC25922 [3]; E. coli wild-type, Table 4 (CAMH medium)
  MIC: >1000 µM
E. coli ATCC25922 [3]; Escherichia coli, ATCC25922
  MIC: > 1000 µM
E. coli ATCC25922 [3]; wild-type E. coli
  antibacterial activity towards E. coli, no activity up to: > 1 mM
mtLeuRS [14]
  IC50: 1 ± 0.1 nM

## NNC(=O)c1ccncc1 [Isoniazid]
[9]; 1x to 50xMIC
  PAE at any concentration: no detectable PAE
[9]; [15]
  PAE 1xMIC: 0 h
[9]; [16]
  PAE 10xMIC: 0 h
[9]; [17]
  PAE 30xMIC: 0 h
[9]; [18]
  PAE 50xMIC: 0 h
M. tuberculosis H37Rv
  MIC: 0.23 µM (≈ 0.0315 µg/mL)

## CCC[C@H](N)C(=O)O [Nva, L-Norvaline]
E. coli ATCC25922 [6]; ATCC25922, read-out: MIC of Nva with 6.4 μM ganfeborole, E. coli ATCC25922, in the presence of 3.1 μM Leu
  MIC: 25 µM
E. coli ATCC25922 [6]; ATCC25922, read-out: MIC of Nva with 6.4 μM ganfeborole, E. coli ATCC25922, with 200 μM Leu
  MIC: 1600 µM
E. coli ATCC25922 [3]; Nva alone, E. coli
  effect on bacterial growth, no effect up to: > 200 µM

## CO[C@H]1/C=C/O[C@@]2(C)Oc3c(C)c(O)c4c(O)c(c(/C=N/N5CCN(C)CC5)c(O)c4c3C2=O)NC(=O)/C(C)=C\C=C\[C@H](C)[C@H](O)[C@@H](C)[C@@H](O)[C@@H](C)[C@H](OC(C)=O)[C@@H]1C [Rifampicin]
[9]
  PAE 1xMIC: 22 ± 1 h
  PAE 10xMIC: 30 ± 2 h
  PAE 30xMIC: 36 ± 3 h
  PAE 50xMIC: 72 h and 72 ± 4 h
M. tuberculosis H37Rv
  MIC: 0.04 µM (≈ 0.0329 µg/mL)
M. tuberculosis
  PAE: 68 to 77 h
